Measured values taken from patent US9296716B2, “Androgen receptor ligands” (THE PROVOST, FELLOWS, FOUNDATION SCHOLARS, & THE OTHER …, priority 2011, dated 2016).
Positions count from the first letter of the chain named. Entries after “also recorded” stand apart in the source; their conditions may differ. Like-named read-outs stand apart in the source and are kept apart here.

Assays:
AR-LBD wt = target: T1, AR-LBD wt (Homo sapiens, UniProt P10275); test: Lanthascreen TR-FRET AR coactivator (D11-FxxLF) assay, AR-LBD wt; assay type: biochemical; conditions: for type of AR antagonism (full / partial): TR-FRET in agonist and antagonist mode; for IC50: TR-FRET, D11-FxxLF peptide, DHT = EC80
T1 sequence (P10275 669-900 limits assumed): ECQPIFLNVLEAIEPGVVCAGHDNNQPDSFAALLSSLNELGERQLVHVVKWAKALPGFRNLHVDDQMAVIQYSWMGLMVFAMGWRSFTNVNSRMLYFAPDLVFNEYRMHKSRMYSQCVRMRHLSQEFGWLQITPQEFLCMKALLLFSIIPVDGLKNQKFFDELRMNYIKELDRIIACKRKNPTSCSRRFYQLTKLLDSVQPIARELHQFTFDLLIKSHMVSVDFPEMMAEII

[1] = target: T2, AR LBP (AR-LBD and Fluormone complex) (Rattus norvegicus, UniProt P15207); test: Fluorescence polarization (PolarScreen) AR competitor assay; assay type: binding; conditions: for displacement of bound fluorescently-labelled ligand from the LBP: FP assay
T2 construct: purchased Invitrogen P3018
T2 sequence (P15207 651-882 limits assumed): T1 sequence (P10275 669-900 limits assumed)
Excerpt: The TR-FRET assay cannot differentiate between direct coactivator antagonists acting on the LBD surface and ‘classical’ AR antagonists which also functionally disrupt coactivator recruitment by displacing DHT from the ligand binding pocket.
(§1) Fluorescence polarization assays are susceptible by fluorescence interference/aggregation and light scattering issues by compounds present in the wells. This could lead to false positive or false negative hits. This problem is addressed in and the presence of false ‘hits’ can be determined by plotting the total fluorescence intensity of the assay versus the anisotropy for each compound.
(§2) To minimize the possibility of such false negative or positive reporting, the FP data was rigorously interrogated through examination of both auto-fluorescence and aggregation (FIG. 3). […] Diarylhydrazides are AR Potential Selective Coactivator Interaction Disruptors
PolarScreen Androgen Receptor Competitor Assay Kit Green (Invitrogen, cat no. P3018) was used to investigate the binding of the test compound to the LBP site, occupied by a high affinity ligand (Fluormone).
100× test compound solutions in DMSO were diluted in AR green buffer (Invitrogen) to achieve 2× concentrations and placed in a 384 well plate (Corning, cat no. 3576) with 40 μl volume capacity. AR-LBD was supplemented with 5 mM DTT to prevent protein degradation. AR-LBD and Fluormone (2×) mix are prepared separately and then added to each compound dilution to achieve a final concentration LBD-fluormone of 50 nM and 2 nM respectively. Plates were incubated protected from light for at least 4 hours. Controls included a maximum mP positive control, which consists of the AR-LBD and fluormone mix (2×), and a minimum mP control, containing only Fluormone (2×). A vehicle control was added to account for DMSO effect, and a blank control containing buffer only. Fluorescence polarization was measured with PHERAstar equipment (BMG LabTech) using an optic module with excitation at 485 nm and emission at 530 nm.

[2] = Solubility in FP assay buffer (fluorescence interference/aggregation check); assay type: physicochemical; conditions: high concentration (50 μM)
Excerpt: as §1, §2

[3] = target: Estrogen Receptor beta (ER-β) LBD (Homo sapiens, UniProt Q92731); test: TR-FRET PGC1-α coactivator recruitment assay, ERβ LBD; assay type: biochemical; conditions: Estradiol = EC80; for effect on ERβ recruitment of fluorescent labelled PGC1-α: 100 μM to 45 nM; for IC50: TR-FRET, ± SEM (n = 6), read-out: NR LBDs IC50 (μM) ER-β
Estrogen Receptor beta (ER-β) LBD, sequence (Q92731 264-498 limits assumed): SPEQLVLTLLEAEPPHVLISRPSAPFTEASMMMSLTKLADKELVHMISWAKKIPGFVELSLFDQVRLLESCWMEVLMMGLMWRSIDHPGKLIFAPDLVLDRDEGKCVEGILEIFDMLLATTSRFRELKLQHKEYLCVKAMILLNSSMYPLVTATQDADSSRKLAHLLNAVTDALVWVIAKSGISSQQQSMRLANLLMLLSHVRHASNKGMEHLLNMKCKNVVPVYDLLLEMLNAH
Protocol: (§3) Compound binding affinities for Progesterone Receptor (PR), Glucocorticoid Receptor (GR), Estrogen Receptor alpha and Estrogen Receptor beta were determined using TR-FRET (Table 2).
(§4) Selectivity of the diarylhydrazide scaffold for the AR was determined through a TR-FRET assay in ERα (FIGS. 8A & 9A1) and ERR (FIGS. 8B & 9A2). […] The non-LBP nature of this inhibition was confirmed by a FP assay (FIGS. 9C, 9B1 & 9B2).
(§5) Lanthascreen TR-FRET AR Coactivator Assay kit (Invitrogen, cat no. PV4381) was used to screen for potential coactivator disruptors.
(§6) TR FRET values were calculated at 10 flashes per well, using a delay time of 100 μs and integration time 200 μs as recommended by the Invitrogen assay guidelines. […] A serial dilution of compounds was firstly prepared in 100×DMSO (Sigma-Aldrich) starting from the maximum desired concentration to achieve a 12 point range concentration using 96-well polypropylene plates (Nalgene Nunc, Rochester, N.Y.). Each 100× solution was diluted to 2× concentration with TR-FRET co-regulator buffer A (Invitrogen proprietary buffer), yielding a final concentration of 1% DMSO in each well.
(§7) D11-FxxLF and Tb antibody were premixed in light protecting vials prior to use. A final concentration of DTT 5 mM was used in the assay buffer in order to prevent protein degradation. All plates (agonist and antagonist mode) were incubated between 2 and 4 hours at room temperature protected from light prior to TR-FRET measurement. […] Data was fitted using the sigmoidal dose response (variable slope) available from Graphpad Prism 5. Y=Bottom+(Top-Bottom)/(1+10^((Log IC50−X)*HillSlope))
(§8) The same procedure was used for AR T877A (Invitrogen cat no. PV4667), PR (Invitrogen cat no. PV4666), ER-α (Invitrogen cat no. PV4544), ER-β (Invitrogen cat no. PV4541) and GR (Invitrogen cat no. PV4683). The assay was adapted to exclude possible non-specific aggregation mechanism of inhibition by adding very low concentration of detergent Triton X-100 (0.001%) to the assay buffer following the Shoichet review guidelines [Shoichet BK (2006) Screening in a spirit haunted world. Drug Discov Today 11:607-615].

[4] = target: T3, Glucocorticoid Receptor (GR) LBD (Homo sapiens, UniProt P04150); test: TR-FRET SRC1-4 coactivator recruitment assay, GR LBD; assay type: biochemical; conditions: Dexamethasone = EC80; for effect on SRC1-4 recruitment by GR LBD: 100 μM to 12.5 μM or single point 100 μM; for IC50: TR-FRET, ± SEM (n = 6), read-out: NR LBDs IC50 (μM) GR
T3 construct: purchased Invitrogen PV4683
T3 sequence (P04150 524-758 limits assumed): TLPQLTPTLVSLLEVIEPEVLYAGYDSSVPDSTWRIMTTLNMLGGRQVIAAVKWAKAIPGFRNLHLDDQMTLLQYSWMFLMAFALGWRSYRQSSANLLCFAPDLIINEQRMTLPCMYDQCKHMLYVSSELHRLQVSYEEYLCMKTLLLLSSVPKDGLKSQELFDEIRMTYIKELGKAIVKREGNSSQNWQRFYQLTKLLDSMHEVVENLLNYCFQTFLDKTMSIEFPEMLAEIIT
Protocol: as §3
Dexamethasone bound receptor recruitment of the fluorescently labelled SCR1-4 coactivator was unimpaired at screening concentrations up to 100 μM for all the diarylhydrazides evaluated (FIG. 5).
as §5, §6, §7, §8

[5] = target: T4, Estrogen Receptor alpha (ER-α) LBD (Homo sapiens, UniProt P03372); test: TR-FRET PGC1-α coactivator recruitment assay, ERα LBD; assay type: biochemical; conditions: Estradiol = EC80; for effect on ERα recruitment of fluorescent labelled PGC1-α: 100 μM to 45 nM; for IC50: TR-FRET, ± SEM (n = 6), read-out: NR LBDs IC50 (μM) ER-α
T4 sequence (P03372 311-547 limits assumed): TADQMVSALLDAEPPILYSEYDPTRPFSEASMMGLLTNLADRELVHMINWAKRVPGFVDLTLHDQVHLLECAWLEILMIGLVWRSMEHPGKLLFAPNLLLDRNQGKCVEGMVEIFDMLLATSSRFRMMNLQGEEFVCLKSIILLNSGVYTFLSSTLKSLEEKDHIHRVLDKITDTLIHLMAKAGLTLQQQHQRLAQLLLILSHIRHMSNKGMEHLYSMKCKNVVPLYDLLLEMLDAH
Protocol: as §3, §4, §5, §6, §7, §8

[6] = target: T5, Progesterone Receptor (PR) LBD (Homo sapiens, UniProt P06401); test: TR-FRET SRC1-4 coactivator recruitment assay, PR LBD; assay type: biochemical; conditions: Progesterone = EC80; for effect on PR recruitment of fluorescent labelled SRC1-4: 100 μM to 45 nM; for IC50: TR-FRET, ± SEM (n = 6), read-out: NR LBDs IC50 (μM) PR
T5 construct: purchased Invitrogen PV4666
T5 sequence (P06401 679-913 limits assumed): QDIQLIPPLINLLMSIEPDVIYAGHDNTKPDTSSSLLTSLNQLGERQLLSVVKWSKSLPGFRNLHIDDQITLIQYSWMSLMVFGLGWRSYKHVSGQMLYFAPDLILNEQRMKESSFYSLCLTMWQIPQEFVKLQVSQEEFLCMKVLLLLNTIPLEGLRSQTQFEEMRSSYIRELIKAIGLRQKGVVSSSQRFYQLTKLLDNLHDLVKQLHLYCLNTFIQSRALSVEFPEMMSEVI
Protocol: as §3, §5, §6, §7, §8

LNCaP cells = test: LNCaP cell proliferation assay (androgen deprived, AlamarBlue); assay type: cell-based; conditions: 10^−10M, 0.1% DMSO, steroid depleted conditions
Protocol: To determine the optimal DHT concentration and length of treatment required for cell proliferation assays, we tested a range of DHT concentrations in 0.1% DMSO for 5 or 7 days in LNCaP cells cultured in FBS stripped phenol red free media. […] Media and treatments were replaced every second incubation day (FIGS. 12 A and B)
For cell viability (end point) assays LNCaP, PC-3 and PWR-1E cells were seeded at 2.5*10^4/ml density in 200 μl volume of a 96-well plate in triplicate and incubated for 24 hours prior testing. Test compounds were included at different concentrations to achieve a final concentration of 0.5% DMSO in each well. Effect of 0.5% DMSO on cell-viability was also evaluated. Cell viability was assessed after 24 hours of treatment using 10% Alamar Blue reagent (Invitrogen) for each well. Cell viability was monitored by the reduction of resazurin, a blue, cell-permeable and non-toxic compound, to resorufin, a red and highly fluorescent product. Viable cells continuously convert resazurin to resorufin, increasing the overall colour and fluorescence of the media surrounding cells. Fluorescence intensity can be quantitatively determined with a fluorescence microplate reader at excitation/emission 544 nm/590 nm (Spectramax Gemini). For hormone dependent cell proliferation assays in androgen deprived LNCaP cells, cells were seeded at 2*10^4 cells/ml in a 24-well plate in triplicate. Cells were plated in phenol red free RPMI Glutamax (Invitrogen) supplemented with 10% charcoal-stripped FBS to deplete endogenous steroids 48 hours prior the assay as described in previous reports. […] Cells were treated with different concentrations of test compounds with or without 0.1 nM DHT to achieve a final concentration of 0.1% DMSO in each well. A control for the vehicle was included to ensure no effect on viability could be detected. Media and treatments were replaced every second day, after washing the cells twice with 1×PBS. Supernatants were collected after five days for secreted PSA levels evaluation and cell proliferation was assessed for the same plate using Alamar Blue in order to exclude non-specific effects due to toxicity issues.

AR-LBD T877A mutant = target: T6, AR-LBD T877A mutant (Homo sapiens, UniProt P10275, T878A); test: TR-FRET coactivator assay, AR T877A mutant; assay type: biochemical; conditions: D11-FxxLF peptide, DHT = EC80
T6 construct: purchased Invitrogen PV4667
T6 sequence (P10275 669-900 T878A): T1 sequence (P10275 669-900 limits assumed) with T210A

Row | SMILES | type of AR antagonism (full / partial) (AR-LBD wt) | displacement of bound fluorescently-labelled ligand from the LBP [1] | solubility in the chosen assay buffer [2] | effect on ERβ recruitment of fluorescent labelled PGC1-α [3] | IC50 [3] [µM] | effect on SRC1-4 recruitment by GR LBD [4] | IC50 [4] [µM] | effect on ERα recruitment of fluorescent labelled PGC1-α [5] | IC50 [5] [µM] | inhibition at 1 µM ([1]; FP, 1 μM, read-out: inhibition of the LBD-F complex) [%] | effect on PR recruitment of fluorescent labelled SRC1-4 [6] | IC50 [6] [µM] | increase of LNCaP cell proliferation (LNCaP cells) [fold] | IC50 (AR-LBD wt; read-out: AR (wt)) [µM] | IC50 (AR-LBD wt; read-out: Activity (AR wt TR-FRET)) [µM] | IC50 (AR-LBD T877A mutant) [µM]
1 | O=C(N/N=C/c1cccc(O)c1O)c1cc2ccccc2cc1O [MDG173] | full AR antagonists | inability to displace |  |  |  |  |  |  |  |  |  |  |  |  |  | 
2 | COc1cc(/C=N/NC(=O)c2cc3c(ccc4ccccc43)o2)cc(I)c1O [MDG15] | full AR antagonists | inability to displace |  |  |  |  |  |  |  |  |  |  |  |  |  | 
3 | O=C(N/N=C/c1cc2ccccc2cc1O)c1cc2ccccc2cc1O [MDG483] | full AR antagonists |  | solubility issues | partially inhibit | 12 ± 0.4 | do not affect | > 100 | partially inhibit | 10.2 ± 3 | ~0 | partially inhibit | 8.4 ± 1.4 |  |  |  | 
4 | C[C@]12CCC(=O)C[C@@H]1CC[C@@H]1[C@@H]2CC[C@]2(C)[C@@H](O)CC[C@@H]12 [DHT, dihydrotestosterone, reference compound] |  |  |  |  |  |  |  |  |  |  |  |  | 2 |  |  | 
5 | O=C(N/N=C/c1cc(Br)ccc1O)c1cc2ccccc2cc1O [MDG292] | full AR antagonism; also recorded: full AR antagonists |  |  | partially inhibit | > 100 | do not affect | > 100 | partially inhibit | > 100 |  | partially inhibit | 22.5 ± 5.4 |  | 13.3 ± 3.1 | 13.3 ± 3.1 | 12.4 ± 2.2
